# Test results from ChEMBL document CHEMBL1122681, “(Acylaryloxy)acetic acid diuretics. 5. [(2-Alkyl- and 2,2-disubstituted-1,3-dioxo-5-indanyl)oxy]acetic acids” (J Med Chem, 1984).
# Tests used:
# Pan troglodytes [1] = test: Compound was evaluated for diuretic activity in chimpanzee measured as increase in volume of urine at 1 mg/kg; format: functional
# Canis familiaris [2] = species: Canis familiaris; test: volume of urine in dog; format: ADME, organism-based, Canis lupus familiaris; details: in vivo
# Canis familiaris [3] = test: Compound was evaluated for diuretic activity, in female mongrel dogs by measuring amount of K+ in urine after iv administration of 5 mg/kg (control/compound treatment results) Control = 11; format: functional, Canis lupus familiaris
# [4] = volume of urine at 3 mg/kg; format: ADME, organism-based; parameters: dose 3 mg/kg; details: in vivo
# Canis familiaris [5] = test: Compound was evaluated for diuretic activity, administered orally in female mongrel dogs (5 mg/kg) measured as milliequivalents of Na; format: functional, Canis lupus familiaris, Urine
# Rattus norvegicus [6] = test: Compound was evaluated for diuretic activity administered orally in female rats measured as milliequivalents of Na+x 100 / cage at 3 mg/kg; format: functional, Urine; details: route oral
# Canis familiaris [7] = test: Compound was evaluated for diuretic activity, in female mongrel dogs by measuring amount of Cl- in urine after iv administration of 5 mg/kg (control/compound treatment results) Control = 62; format: functional, Canis lupus familiaris
# Pan troglodytes [8] = test: Compound was evaluated for diuretic activity in chimpanzee measured as increase in the number of microequivalents of K+ /min at 1 mg/kg; format: functional, Urine
# Canis familiaris [9] = test: Compound was evaluated for diuretic activity, in female mongrel dogs by measuring amount of Na+ in urine after iv administration of 5 mg/kg (control/compound treatment results) Control = 107; format: functional, Canis lupus familiaris
# Pan troglodytes [10] = test: Compound was evaluated for diuretic activity in chimpanzee measured as increase in the number of microequivalents of Na+ /min at 1 mg/kg; format: functional, Urine
# Rattus norvegicus [11] = test: Compound was evaluated for diuretic activity administered orally in female rats measured as milliequivalents of K+x 100 / cage at 9 mg/kg; format: functional, Urine; details: route oral
# Rattus norvegicus [12] = test: Compound was evaluated for diuretic activity administered orally in female rats measured as milliequivalents of Na+x 100 / cage at 9 mg/kg; format: functional, Urine; details: route oral
# Rattus norvegicus [13] = test: Compound was evaluated for diuretic activity administered orally in female rats measured as milliequivalents of K+x 100 / cage at 3 mg/kg; format: functional, Urine; details: route oral
# Pan troglodytes [14] = test: Compound was evaluated for diuretic activity in chimpanzee measured as increase in the number of microequivalents of K+ /min at 5 mg/kg; format: functional, Urine
# Pan troglodytes [15] = test: Compound was evaluated for diuretic activity in chimpanzee measured as clearance of […] and urate after peroral administration of 5 mg/kg; format: functional, Urine; details: route oral
# Rattus norvegicus [16] = test: Compound was evaluated for diuretic activity administered orally in female rats measured as milliequivalents of K+x 100 / cage at 81 mg/kg; format: functional, Urine; details: route oral
# Pan troglodytes [17] = test: Compound was evaluated for diuretic activity in chimpanzee measured as increase in the number of microequivalents of Na+ /min at 5 mg/kg; format: functional, Urine
# [18] = volume of urine at 27 mg/kg; format: ADME, organism-based; parameters: dose 27 mg/kg; details: in vivo
# [19] = volume of urine at 9 mg/kg; format: ADME, organism-based; parameters: dose 9 mg/kg; details: in vivo
# [20] = volume of urine at 81 mg/kg; format: ADME, organism-based; parameters: dose 81 mg/kg; details: in vivo
# Rattus norvegicus [21] = test: Compound was evaluated for diuretic activity administered orally in female rats measured as milliequivalents of Na+x 100 / cage at 27 mg/kg; format: functional, Urine; details: route oral
# Rattus norvegicus [22] = test: Compound was evaluated for diuretic activity administered orally in female rats measured as milliequivalents of Cl-+x 100 / cage at 27 mg/kg; format: functional, Urine; details: route oral
# Pan troglodytes [23] = test: Compound was evaluated for diuretic activity in chimpanzee measured as clearance of […] and urate after intra venous administration of 5 mg/kg.; format: functional, Urine
# Rattus norvegicus [24] = test: Compound was evaluated for diuretic activity administered orally in female rats measured as milliequivalents of Na+x 100 / cage at 81 mg/kg; format: functional, Urine; details: route oral
# Canis familiaris [25] = test: Compound was evaluated for diuretic activity, administered orally in female mongrel dogs (5 mg/kg) measured as milliequivalents of Cl-; format: functional, Canis lupus familiaris, Urine
# Rattus norvegicus [26] = test: Compound was evaluated for diuretic activity administered orally in female rats measured as milliequivalents of Cl-x 100 / cage at 81 mg/kg; format: functional, Urine; details: route oral
# Canis familiaris [27] = test: Compound was evaluated for diuretic activity, administered orally in female mongrel dogs (5 mg/kg) measured as milliequivalents of K; format: functional, Canis lupus familiaris, Urine
# Rattus norvegicus [28] = test: Compound was evaluated for diuretic activity administered orally in female rats measured as milliequivalents of K+x 100 / cage at 27 mg/kg; format: functional, Urine; details: route oral
# Rattus norvegicus [29] = test: Compound was evaluated for diuretic activity administered orally in female rats measured as milliequivalents of Cl-x 100 / cage at 3 mg/kg; format: functional, Urine; details: route oral
# Pan troglodytes [30] = test: Compound was evaluated for diuretic activity in chimpanzee measured as increase in the number of microequivalents of Cl- electrolyte/min at 1 mg/kg; format: functional, Urine
# Rattus norvegicus [31] = test: Compound was evaluated for diuretic activity administered orally in female rats measured as milliequivalents of Cl-x 100 / cage at 9 mg/kg; format: functional, Urine; details: route oral
# Pan troglodytes [32] = test: Compound was evaluated for diuretic activity in chimpanzee measured as increase in the number of microequivalents of Cl- electrolyte/min at 5 mg/kg; format: functional, Urine
# Canis familiaris [33] = test: Compound was evaluated for diuretic activity, in female mongrel dogs by measuring volume of urine, after iv administration of 5 mg/kg (control/compound treatment results) Control = 2; format: ADME, organism-based, Canis lupus familiaris; parameters: dose 5 mg/kg, route intravenous; details: dog, in vivo
# Pan troglodytes [34] = test: Compound was evaluated for diuretic activity in chimpanzee measured as increase in volume of urine at 5 mg/kg; format: functional
compound,measurement,setting,value
CC1(c2ccccc2)Cc2cc(OCC(=O)O)c(Cl)c(Cl)c2C1=O (centres undefined) [INDACRINONE],Increase in volume,Pan troglodytes [1],14.8 mL/min
same,Urine volume,Canis familiaris [2],267 mL
same,Activity,Canis familiaris [3],62 u equiv min-1
same,Urine volume,[4],28 mL
same,Activity,Canis familiaris [5],12
same,Activity,Rattus norvegicus [6],86
same,Activity,Canis familiaris [7],1010 u equiv min-1
same,Increase,Pan troglodytes [8],171
same,Activity,Canis familiaris [9],920 u equiv min-1
same,Increase,Pan troglodytes [10],2383
same,PActivity,Rattus norvegicus [11],50
same,Activity,Rattus norvegicus [12],97
same,Activity,Rattus norvegicus [13],32
same,Increase,Pan troglodytes [14],53
same,Delta C urate / delta C insulin,Pan troglodytes [15],0.332
same,Activity,Rattus norvegicus [16],85
same,Increase,Pan troglodytes [17],409
same,Urine volume,[18],31 mL
same,Urine volume,[19],29 mL
same,Urine volume,[20],35 mL
same,Activity,Rattus norvegicus [21],129
same,Activity,Rattus norvegicus [22],223
same,Delta C urate / delta C insulin,Pan troglodytes [23],0.55
same,Activity,Rattus norvegicus [24],189
same,Activity,Canis familiaris [25],26
same,Activity,Rattus norvegicus [26],303
same,Activity,Canis familiaris [27],2.2
same,Activity,Rattus norvegicus [28],61
same,Activity,Rattus norvegicus [29],85
same,Increase,Pan troglodytes [30],2624
same,Activity,Rattus norvegicus [31],163
same,Increase,Pan troglodytes [32],554
same,Urine volume,Canis familiaris [33],8 mL/min
same,Increase in volume,Pan troglodytes [34],3.6 mL/min
